Molecular target: T1, sodium ion channel of Trpm5 bitter receptor (Mus musculus, UniProt Q9JJH7)
T1 construct: Put the removed tongue in a 2 ml EP tube, add 1-1.5 ml of 0.25% trypsin solution; from tissue; host or cells: cells dissociated with trypsin from mouse tongue
T1 sequence (Q9JJH7 1-1158): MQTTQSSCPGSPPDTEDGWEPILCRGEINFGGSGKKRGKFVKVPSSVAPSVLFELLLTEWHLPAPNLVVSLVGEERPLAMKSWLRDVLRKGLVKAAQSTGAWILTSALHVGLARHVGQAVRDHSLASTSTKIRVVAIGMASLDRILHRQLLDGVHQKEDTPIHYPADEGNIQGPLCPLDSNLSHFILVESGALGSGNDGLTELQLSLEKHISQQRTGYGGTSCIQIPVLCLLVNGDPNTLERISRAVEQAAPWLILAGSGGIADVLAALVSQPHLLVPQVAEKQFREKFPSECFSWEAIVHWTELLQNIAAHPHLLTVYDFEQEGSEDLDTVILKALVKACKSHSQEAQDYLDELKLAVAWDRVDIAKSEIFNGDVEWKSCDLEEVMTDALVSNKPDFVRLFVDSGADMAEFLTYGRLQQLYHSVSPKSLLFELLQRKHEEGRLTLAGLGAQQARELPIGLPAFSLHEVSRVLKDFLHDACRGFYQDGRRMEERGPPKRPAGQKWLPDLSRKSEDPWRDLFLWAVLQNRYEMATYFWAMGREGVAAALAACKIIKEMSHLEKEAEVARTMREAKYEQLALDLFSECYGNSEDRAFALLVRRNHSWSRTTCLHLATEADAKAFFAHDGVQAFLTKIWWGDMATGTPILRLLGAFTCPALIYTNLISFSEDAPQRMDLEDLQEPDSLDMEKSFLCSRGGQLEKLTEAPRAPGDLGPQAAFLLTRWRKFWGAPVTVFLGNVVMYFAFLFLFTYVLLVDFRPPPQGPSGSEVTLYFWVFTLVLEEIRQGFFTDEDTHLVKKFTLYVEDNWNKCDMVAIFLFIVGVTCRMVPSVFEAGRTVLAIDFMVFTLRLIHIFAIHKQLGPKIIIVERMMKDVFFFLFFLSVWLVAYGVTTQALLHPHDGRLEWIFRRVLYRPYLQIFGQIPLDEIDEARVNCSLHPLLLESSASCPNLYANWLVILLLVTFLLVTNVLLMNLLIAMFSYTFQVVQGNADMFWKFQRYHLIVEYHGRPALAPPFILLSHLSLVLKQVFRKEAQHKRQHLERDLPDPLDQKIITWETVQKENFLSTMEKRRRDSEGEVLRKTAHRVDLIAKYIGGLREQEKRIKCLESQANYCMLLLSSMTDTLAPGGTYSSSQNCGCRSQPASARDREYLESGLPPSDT
Test: Immunofluorescence experiment of sodium ion channels in mouse tongue cells stimulated with bitter agent
Assay type: cell-based, mice
Details: for blocking effect on the sodium ion channel (result analysis in words): judged from change of sodium ion fluorescence after bitter drug
Experimental: The mouse was killed by dislocation, and the tongue was removed (minimizing tongue bleeding), disinfected with alcohol for 2 minutes (adding sodium citrate for anticoagulation), and washed with D-Hanks solution or rinsed with 10 ml of saline solution drawn by a syringe.
Take out the centrifuge tube from the constant temperature incubator, shake for 2 minutes, blow the undigested tongue several times with the gun tip, take out the tongue, cover it with the EP tube cap, put it in a centrifuge, centrifuge at 3000 rpm for 3 minutes, discard the supernatant, add cell culture medium (containing 10% inactivated serum), blow and disperse the cells, and place it in a 37° C. constant temperature incubator for 30 min to allow the cells to recover.
(1) Take out the prepared ENG-2 AM storage solution and warm it to room temperature for use, keeping it away from light. The concentration of the pre-prepared stock solution is 2 mM and it is stored at −18° C. for future use.
(2) Dilute the ENG-2 AM+DMSO stock solution to a […] working solution using serum-free culture medium.
(3) Load the probe in a serum-free culture medium containing an appropriate concentration of AM probe.
Take out the cells from the incubator, centrifuge, and discard the culture medium. Wash the cells once with D-Hanks solution, centrifuge, and discard the culture medium. Add 1 ml of culture medium again, then add 300 ul of sodium ion probe dilution solution, blow and disperse the cells, and incubate the cells at room temperature or 37° C. for 1 hour.
At the end of incubation, centrifuge at 100 rpm for 2 minutes, discard the supernatant, add 500 ul of cell culture medium without AM probe, blow and disperse the cells, and incubate for 20-60 min to ensure that the cells completely deesterify the AM group.
(4) Take 10 ul of incubation solution and drop it into the center of the cell counting plate, cover it with a slide, and observe it under a fluorescence microscope.
(5) Use a low-power microscope to find the cells, open the fluorescence path, detect the fluorescence signal with a fluorescence microscope, change to a high-power microscope, find the appropriate observation cells, observe and take pictures to record the initial signal.
(2) Experimental drugs: Add 5 ul of the tested drug to one side of the cover glass on the cell counting plate, use absorbent paper to absorb water on the opposite side, let the solution soak the cells, and then use a fluorescence microscope to observe and take 3-5 photos, one every 1-2 minutes; then add 5 ul of the standard bitter drug to one side of the cover glass on the cell counting plate, use absorbent paper to absorb water on the opposite side, let the solution soak the cells, and then use a fluorescence microscope to observe and take 3-5 photos, one every 1-2 minutes.
(5) Data analysis: Use Image J-Fiji software to analyze the images, compare the average values of the fluorescence pixels, remove the base number and compare them in the table, draw FIGS. 4-6, and use SPSS18.0 to perform chi-square tests to compare the differences between the data groups.

[1] = Bitterant 60 s (2% metronidazole solution)
[2] = Bitterant 120 s (2% metronidazole solution)
[3] = Bitterant 180 s (2% metronidazole solution)
[4] = Initial (before addition of drug), sodium ion dye ENG-2 AM
[5] = Bitterant 240 s (2% metronidazole solution)

| Compound | average value of fluorescence brightness (Addition of drugs) | average value of fluorescence brightness, base number removed (Addition of drugs) | average value of fluorescence brightness [1] | average value of fluorescence brightness, base number removed [1] | average value of fluorescence brightness [2] | average value of fluorescence brightness, base number removed [2] | average value of fluorescence brightness [3] | average value of fluorescence brightness, base number removed [3] | average value of fluorescence brightness, base number removed (Initial) | average value of fluorescence brightness [4] | blocking effect on the sodium ion channel (result analysis in words) | average value of fluorescence brightness [5] | average value of fluorescence brightness, base number removed [5] |
| --- | --- | --- | --- | --- | --- | --- | --- | --- | --- | --- | --- | --- | --- |
| O=CC=Cc1ccccc1 [Cinnamaldehyde, 3-phenyl-2-propenal] | 31.017 | −0.328 | 30.893 | −0.452 | 30.691 | −0.654 | 30.597 | −0.748 | 0 | 31.345 | can block the sodium ion channel of Trpm5 bitter receptor | – | – |
| CC(C)=CCCC(C)=CC=O [Citral, citral] | 29.943 | −0.335 | 29.766 | −0.512 | 29.742 | −0.536 | 29.647 | −0.631 | 0 | 30.278 | can block the sodium ion channel of Trpm5 bitter receptor | – | – |
| C=CCc1ccc(OC(C)=O)c(OC)c1 [Eugenol acetate] | 28.103 | −0.125 | 27.797 | −0.431 | 26.368 | −1.86 | 26.329 | −1.899 | 0 | 28.228 | can block the sodium ion channel of Trpm5 bitter receptor | – | – |
| CCCCC[C@H](O)CC(=O)CCc1ccc(O)c(OC)c1 [Gingerol, 6-gingerol] | 25.244 | −0.093 | 25.15 | −0.187 | 25.137 | −0.2 | 25.08 | −0.257 | 0 | 25.337 | can block the sodium ion channel of Trpm5 bitter receptor | – | – |
| C=CC(C)(O)CCC=C(C)C (stereo not shown) [Linalool, linalool] | 27.648 | −0.135 | 27.649 | – | 27.44 | −0.343 | 27.426 | −0.357 | 0 | 27.783 | can block the sodium ion channel of Trpm5 bitter receptor | 26.46 | −1.323 |
| CC1CCC(C(C)C)C(=O)C1 (stereo not shown) [Menthone, 5-methyl-2-isopropylcyclohexanone] | 25.48 | −0.076 | 25.415 | −0.141 | 25.447 | −0.109 | 25.4 | −0.156 | 0 | 25.556 | can block the sodium ion channel of Trpm5 bitter receptor | – | – |
| CC(C)[C@@H]1CC[C@@H](C)C[C@H]1OC(=O)CCC(=O)O [Menthyl succinate] | 28.92 | 0.041 | 28.747 | −0.132 | 28.8 | −0.079 | 28.851 | −0.028 | 0 | 28.879 | can block the sodium ion channel of Trpm5 bitter receptor | – | – |
| COc1cc(C(=O)O)ccc1O [Vanillic acid, 3-methoxy-4-hydroxybenzoic acid] | 26.795 | −0.107 | 26.689 | −0.213 | 26.699 | −0.203 | 26.725 | −0.177 | 0 | 26.902 | have poor effects and do not have bitterness masking effect | – | – |
| COc1ccc(CCN(C)CCCC(C#N)(c2ccc(OC)c(OC)c2)C(C)C)cc1OC (stereo not shown) [Verapamil, 5-((3,4-dimethoxyphenylethyl)methylamino)-2-(3,4-dimethoxyphenyl)-2-isopropylvaleronitrile, reference compound] | 27.77 | −0.085 | 28.089 | 0.234 | 27.651 | −0.204 | 27.574 | −0.281 | 0 | 27.855 | have poor effects and do not have bitterness masking effect | – | – |

Source: patent publication US20250108023A1, “Products for Masking Bitterness” (The Third People's Hospital of Henan Province, priority 2023, published 2025)
